Laboratory results published in ChEMBL document CHEMBL5360672, “Identification of Novel Dual-Target Estrogen Receptor α Degraders with Tubulin Inhibitory Activity for the Treatment of Endocrine-Resistant Breast Cancer” (J Med Chem, 2023).
The source made the active and inactive calls. The calls are words filed in the database; no cut-off is given here.

Key:
[1] = molecular target: Estrogen receptor beta (Homo sapiens) (UniProt Q92731); test: Binding affinity to human ERbeta assessed as relative binding affinity incubated under vibration for 1 min followed by 2 hrs incubation under dark condition by fluorescence polarization assay relative to estradiol; conditions: time 121.0 min
Sequence of Estrogen receptor beta (Homo sapiens) (Q92731 whole entry): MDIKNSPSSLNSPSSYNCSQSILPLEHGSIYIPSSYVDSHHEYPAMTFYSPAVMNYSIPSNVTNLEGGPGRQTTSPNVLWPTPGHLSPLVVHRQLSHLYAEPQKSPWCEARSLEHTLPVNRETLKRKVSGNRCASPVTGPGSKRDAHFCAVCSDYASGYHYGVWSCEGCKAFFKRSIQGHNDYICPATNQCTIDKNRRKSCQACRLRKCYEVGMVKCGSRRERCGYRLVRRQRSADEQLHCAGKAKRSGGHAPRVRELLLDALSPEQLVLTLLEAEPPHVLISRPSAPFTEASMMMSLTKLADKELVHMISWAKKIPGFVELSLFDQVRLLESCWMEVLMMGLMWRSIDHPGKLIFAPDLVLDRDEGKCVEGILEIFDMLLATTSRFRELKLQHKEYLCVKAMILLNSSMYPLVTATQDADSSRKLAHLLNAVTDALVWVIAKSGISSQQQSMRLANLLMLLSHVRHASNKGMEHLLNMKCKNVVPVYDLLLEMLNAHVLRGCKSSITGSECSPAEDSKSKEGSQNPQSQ

[2] = species: Homo sapiens; test: Selectivity ratio of relative binding affinity for human ERalpha to relative binding affinity to human ERbeta
[3] = test system: MCF7; test: Antiproliferative activity against ERalpha positive human MCF7 cells assessed as inhibition of cell proliferation incubated for 72 hrs by CCK8 assay; format: functional, cell-based; conditions: MCF7, 72 h
[4] = Cytotoxicity against human MCF-10A cells assessed as inhibition of cell proliferation incubated for 72 hrs by CCK8 assay; format: toxicity, cell-based
[5] = Antiproliferative activity against human Tamoxifen-resistant LCC2 cells assessed as inhibition of cell proliferation incubated for 72 hrs by CCK8 assay; format: functional, cell-based
[6] = test system: T47D; test: Antiproliferative activity against human T47D cells harboring ERalpha D538G mutant assessed as inhibition of cell proliferation incubated for 72 hrs by CCK8 assay; format: functional, cell-based
[7] = test system: T47D; test: Antiproliferative activity against human T47D cells harboring ERalpha Y537S mutant assessed as inhibition of cell proliferation incubated for 72 hrs by CCK8 assay; format: functional, cell-based
[8] = molecular target: T1, Estrogen receptor (Homo sapiens, UniProt P03372); test: Antagonist activity at ERalpha (unknown origin) expressed in HEK293T cells co-expressing ERbeta and ERE-luciferase reporter assessed as reduction in relative light unit incubated for 24 hrs by dual-luciferase reporter assay; format: cell-based
T1 sequence (P03372 whole entry): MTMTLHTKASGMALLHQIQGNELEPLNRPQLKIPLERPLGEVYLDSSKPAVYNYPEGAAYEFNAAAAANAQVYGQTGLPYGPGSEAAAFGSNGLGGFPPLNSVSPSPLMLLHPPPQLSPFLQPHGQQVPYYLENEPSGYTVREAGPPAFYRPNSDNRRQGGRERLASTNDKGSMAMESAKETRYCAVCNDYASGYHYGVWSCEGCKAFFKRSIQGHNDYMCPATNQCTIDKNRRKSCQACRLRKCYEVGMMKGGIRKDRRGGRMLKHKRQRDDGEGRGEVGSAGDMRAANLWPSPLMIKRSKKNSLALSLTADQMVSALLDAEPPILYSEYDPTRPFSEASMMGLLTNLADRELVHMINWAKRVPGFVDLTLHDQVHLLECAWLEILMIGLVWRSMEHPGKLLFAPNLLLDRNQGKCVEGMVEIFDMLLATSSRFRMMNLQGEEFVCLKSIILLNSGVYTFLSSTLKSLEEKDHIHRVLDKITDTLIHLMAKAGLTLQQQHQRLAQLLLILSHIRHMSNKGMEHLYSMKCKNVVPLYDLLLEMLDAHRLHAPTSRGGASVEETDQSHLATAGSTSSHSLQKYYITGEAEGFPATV

[9] = molecular target: T2, Estrogen receptor (Homo sapiens) (UniProt P03372); test: Induction of ERalpha degradation in human MCF7 cells at 5 uM incubated for 24 hrs by Western blot analysis; format: cell-based
T2 sequence (whole entry): T1 sequence (P03372 whole entry)

[10] = molecular target: T2, Estrogen receptor (Homo sapiens); test: Induction of ERalpha degradation in human MCF7 cells at 5 uM incubated for 24 hrs in the presence of MG-132 by Western blot analysis; format: cell-based
[11] = test system: Estrogen receptor (Homo sapiens), P03372 [D538G]; test: Induction of ERalpha degradation in human T47D cells harboring ERalpha D538G mutant at 0.5 to 5 uM incubated for 24 hrs by Western blot analysis; format: cell-based; conditions: dose 0.5-5 µM
Sequence of Estrogen receptor (Homo sapiens), P03372 [D538G] (P03372 whole entry D538G): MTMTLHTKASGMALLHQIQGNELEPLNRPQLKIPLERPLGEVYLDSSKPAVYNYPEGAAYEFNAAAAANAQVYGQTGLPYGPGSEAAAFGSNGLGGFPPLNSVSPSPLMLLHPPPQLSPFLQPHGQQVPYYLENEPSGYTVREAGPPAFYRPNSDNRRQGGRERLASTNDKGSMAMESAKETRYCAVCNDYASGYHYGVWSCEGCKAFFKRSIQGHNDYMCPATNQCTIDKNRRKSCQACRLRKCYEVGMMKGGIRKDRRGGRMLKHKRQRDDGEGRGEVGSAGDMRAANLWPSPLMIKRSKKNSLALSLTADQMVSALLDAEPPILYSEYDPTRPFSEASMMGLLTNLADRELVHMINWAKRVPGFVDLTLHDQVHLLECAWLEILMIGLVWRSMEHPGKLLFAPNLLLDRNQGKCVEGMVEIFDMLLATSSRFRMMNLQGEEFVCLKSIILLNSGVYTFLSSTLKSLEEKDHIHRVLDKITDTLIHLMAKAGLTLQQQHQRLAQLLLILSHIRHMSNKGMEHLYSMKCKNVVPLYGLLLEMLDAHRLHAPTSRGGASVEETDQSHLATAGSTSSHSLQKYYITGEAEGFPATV

[12] = test system: Estrogen receptor (Homo sapiens), P03372 [Y537S]; test: Induction of ERalpha degradation in human T47D cells harboring ERalpha Y537S mutant at 0.5 to 5 uM incubated for 24 hrs by Western blot analysis; format: cell-based; conditions: dose 0.5-5 µM
Sequence of Estrogen receptor (Homo sapiens), P03372 [Y537S] (P03372 whole entry Y537S): as the sequence (P03372 whole entry D538G) above, with Y537S, G538D counted along it

[13] = molecular target: T2, Estrogen receptor (Homo sapiens); test: Induction of ERalpha degradation in human Tamoxifen-resistant LCC2 cells at 0.5 to 5 uM incubated for 6 to 24 hrs by Western blot analysis; format: cell-based; conditions: Tamoxifen-resistant LCC2 cell, dose 0.5-5 µM, time 6-24 hrs
[14] = molecular target: T3, Tubulin (Homo sapiens) (UniProt P68371+Q9H4B7+P0DPH7+P68366+Q13509+Q71U36+P04350+Q3ZCM7+P07437+P68363+Q9BQE3+Q6PEY2+Q13885+Q9BVA1+Q9BUF5); test: Disruption of microtubule network in human MCF7 cells assessed as ruptured microtubule network at 2 uM incubated for 48 hrs by DAPI staining based confocal laser scanning microscopic analysis; format: cell-based
[15] = molecular target: T3, Tubulin (Homo sapiens); test: Disruption of microtubule network in human LCC2 cells assessed as ruptured microtubule network at 4 uM incubated for 48 hrs by DAPI staining based confocal laser scanning microscopic analysis; format: cell-based
[16] = molecular target: T3, Tubulin (Homo sapiens); test: Disruption of microtubule network in human LCC2 cells assessed as chaotic microtubule network at 4 uM incubated for 48 hrs by DAPI staining based confocal laser scanning microscopic analysis; format: cell-based
[17] = test system: MCF7; test: Induction of cell cycle arrest in human MCF7 cells assessed as increase in G2/M phase cells at 0 to 8 uM incubated for 48 hrs by flow cytometry analysis (reference value: 20.10%); format: functional; conditions: dose 0-8 µM
[18] = test system: LCC2; test: Induction of cell cycle arrest in human LCC2 cells assessed as accumulation of cells at G2/M phase incubated for 48 hrs by flow cytometry analysis; format: functional, cell-based; conditions: dose 6-24 µM
[19] = test system: MCF7; test: Antitumor activity against human MCF7 cells xenografted in Balb/c nude mouse assessed as reduction in Ki67 positive cells at 2 to 4 mg/kg, ip administered every other day for 20 days by immunohistochemistry analysis; format: functional, organism-based; conditions: dose 2-4 mg/kg, time 20.0 day
[20] = test system: Mus musculus; test: In vivo induction of ERalpha degradation in BALB/c nude mouse xenografted with human MCF7 cells assessed as decrease in ERalpha expression in tumor at 2 to 4 mg/kg, ip administered every other day for 20 days by Western blot analysis; format: functional, organism-based; conditions: dose 2-4 mg/kg, time 20.0 day
[21] = Toxicity in Balb/c nude mouse xenografted with human MCF7 cells assessed as effect on liver morphology at 2 to 4 mg/kg, ip administered every other day for 20 days by H&E staining based analysis; format: organism-based; conditions: in vivo, 480 h, dose 2-4 mg/kg, time 20 day
[22] = Toxicity in Balb/c nude mouse xenografted with human MCF7 cells assessed as effect on kidney morphology at 2 to 4 mg/kg, ip administered every other day for 20 days by H&E staining based analysis; format: organism-based; conditions: in vivo, 480 h, dose 2-4 mg/kg, time 20 day
[23] = test system: MCF7; test: Antitumor activity against human MCF7 cells xenografted in Balb/c nude mouse assessed as tumor growth inhibition at 4 mg/kg, ip administered every other day for 20 days relative to control; format: functional; conditions: MCF7, 480 h, time 20 day, read-out: TGI
[24] = Antitumor activity against human Tamoxifen-resistant LCC2 cells xenografted in Balb/c nude mouse assessed as tumor growth inhibition at 2 mg/kg, ip administered every other day for 20 days relative to control; format: functional; conditions: Tamoxifen-resistant LCC2 cell, 480 h, time 20 day, read-out: TGI
[25] = test system: Mus musculus; test: In vivo induction of ERalpha degradation in BALB/c nude mouse xenografted with human tamoxifen-resistant LCC2 cells assessed as decrease in ERalpha expression in tumor at 2 mg/kg, ip administered every other day for 20 days by Western blot analysis; format: functional, organism-based; conditions: time 20.0 day
[26] = test system: Tamoxifen-resistant LCC2 cell; test: Antitumor activity against human Tamoxifen-resistant LCC2 cells xenografted in Balb/c nude mouse assessed as reduction in Ki67 positive cells at 2 mg/kg, ip administered every other day for 20 days by immunohistochemistry analysis; format: functional, organism-based; conditions: time 20.0 day

N#C[Se]CCCCCC(=O)Nc1ccc(C2=C(c3ccc(O)cc3)C3CC(S(=O)(=O)N(CC(F)(F)F)c4ccccc4F)C2O3)cc1 (stereo unspecified)
RBA [1]: 0.1% | Selectivity ratio [2]: 85.7 | IC50 [3]: 0.06 µM | IC50 at 72 h [4]: 15.8 µM | IC50 [5]: 1.59 µM | IC50 [6]: 1.67 µM | IC50 [7]: 1.37 µM | IC50 [8]: 0.056 µM | Activity [9]: Active | Activity [10]: inactive | Activity [11]: Active | Activity [12]: Active | Activity [13]: Active | Activity [14]: Active | Activity [15]: Active | Activity [16]: Active | Activity [17]: 40.88% | Activity [18]: Dose-Dependent Effect | Activity [19]: Active | Activity [20]: Active | Activity [21]: Non-Toxic | Activity [22]: Non-Toxic | inhibition in vivo at 4 mg/kg [23]: 77.7% | inhibition in vivo at 2 mg/kg [24]: 51.4% | Activity [25]: Active | Activity [26]: Active
